The values that follow come from the NIST ThermoML archive (doi:10.1021/acs.jced.7b00900).

Molecules are shown by their SMILES. Numbers after ± are expanded uncertainties.

The nature of this data set: of the first substance listed, at infinite dilution; xn = mol fraction of the nth substance listed. Particulars: 298.15 K; 100 kPa; Liquid; isoperibol calorimeter; x1 = 0.

In the case of `CCCCOCCCN` [3-butoxy-1-propanamine] + O, the partial molar enthalpy was -7.294 ± 0.0574 kcal/mol.

For the compound `CCOCCCN` [3-ethoxy-1-propanamine] + O, the partial molar enthalpy is -6.582 ± 0.0526 kcal/mol.
